# From US20070021434A1, “NON-NUCLEOSIDE ANTI-HEPACIVIRUS AGENTS AND USES THEREOF” (Migenix Inc., priority 2005, published 2007)
# Read-outs that look alike come from different tables or passages of the source.
# Legend:
# HCV RdRp (NS5B) = HCV RdRp (NS5B) (UniProt P26663); assay type: biochemical, hepatitis C virus
# [1] = tested on: Huh-7 cells, sub-genomic genotype 1a HCV replicon H/SG-Neo; assay: Inhibition of HCV replication in cell culture, genotype 1a replicon; assay type: cell-based, hepatitis C virus; conditions: for EC50: Huh-7, genotype 1a replicon, intracellular HCV RNA 24 h after 3 daily doses; for Selectivity Index (CC50/EC50): genotype 1a replicon, CC50 by neutral red uptake
# Experimental: (§1) Test compounds were solubilized at 30 mM in 100% tissue culture grade DMSO (Sigma, Inc.). Aliquots of test compounds sufficient for one daily treatment were made in individual tubes and all material was stored at −20° C. On each day of treatment, daily aliquots of the test compounds were suspended in culture medium at room temperature and immediately added to the cell cultures. Compounds were added to dividing cultures once daily for three days at concentrations ranging from about 30 μM to about 0.0003 μM. Media was changed with each addition of compound. The assays were started when cell cultures were at about 30-50% confluence, and the cells reached confluence during the last day of treatment. The assays included untreated control cultures (six total), and triplicate cultures treated with α-interferon and ribavirin as positive antiviral and toxicity controls.
# (§2) Intracellular HCV RNA levels and cytotoxicity were assessed in triplicate 24 hours after the last compound dose.
# [2] = tested on: Huh-7 cells, genotype 1b HCV replicon; assay: Inhibition of HCV replication in cell culture, genotype 1b replicon; assay type: cell-based, hepatitis C virus; conditions: for EC50: Huh-7, genotype 1b replicon, intracellular HCV RNA 24 h after 3 daily doses; for Selectivity Index (CC50/EC50): genotype 1b replicon, CC50 by neutral red uptake
# Experimental: as §1, §2
# [3] = Hepatitis C virus, Huh-7, 24 h, read-out: EC50
# Sequence of HCV RdRp (NS5B) (P26663 whole entry, looked up): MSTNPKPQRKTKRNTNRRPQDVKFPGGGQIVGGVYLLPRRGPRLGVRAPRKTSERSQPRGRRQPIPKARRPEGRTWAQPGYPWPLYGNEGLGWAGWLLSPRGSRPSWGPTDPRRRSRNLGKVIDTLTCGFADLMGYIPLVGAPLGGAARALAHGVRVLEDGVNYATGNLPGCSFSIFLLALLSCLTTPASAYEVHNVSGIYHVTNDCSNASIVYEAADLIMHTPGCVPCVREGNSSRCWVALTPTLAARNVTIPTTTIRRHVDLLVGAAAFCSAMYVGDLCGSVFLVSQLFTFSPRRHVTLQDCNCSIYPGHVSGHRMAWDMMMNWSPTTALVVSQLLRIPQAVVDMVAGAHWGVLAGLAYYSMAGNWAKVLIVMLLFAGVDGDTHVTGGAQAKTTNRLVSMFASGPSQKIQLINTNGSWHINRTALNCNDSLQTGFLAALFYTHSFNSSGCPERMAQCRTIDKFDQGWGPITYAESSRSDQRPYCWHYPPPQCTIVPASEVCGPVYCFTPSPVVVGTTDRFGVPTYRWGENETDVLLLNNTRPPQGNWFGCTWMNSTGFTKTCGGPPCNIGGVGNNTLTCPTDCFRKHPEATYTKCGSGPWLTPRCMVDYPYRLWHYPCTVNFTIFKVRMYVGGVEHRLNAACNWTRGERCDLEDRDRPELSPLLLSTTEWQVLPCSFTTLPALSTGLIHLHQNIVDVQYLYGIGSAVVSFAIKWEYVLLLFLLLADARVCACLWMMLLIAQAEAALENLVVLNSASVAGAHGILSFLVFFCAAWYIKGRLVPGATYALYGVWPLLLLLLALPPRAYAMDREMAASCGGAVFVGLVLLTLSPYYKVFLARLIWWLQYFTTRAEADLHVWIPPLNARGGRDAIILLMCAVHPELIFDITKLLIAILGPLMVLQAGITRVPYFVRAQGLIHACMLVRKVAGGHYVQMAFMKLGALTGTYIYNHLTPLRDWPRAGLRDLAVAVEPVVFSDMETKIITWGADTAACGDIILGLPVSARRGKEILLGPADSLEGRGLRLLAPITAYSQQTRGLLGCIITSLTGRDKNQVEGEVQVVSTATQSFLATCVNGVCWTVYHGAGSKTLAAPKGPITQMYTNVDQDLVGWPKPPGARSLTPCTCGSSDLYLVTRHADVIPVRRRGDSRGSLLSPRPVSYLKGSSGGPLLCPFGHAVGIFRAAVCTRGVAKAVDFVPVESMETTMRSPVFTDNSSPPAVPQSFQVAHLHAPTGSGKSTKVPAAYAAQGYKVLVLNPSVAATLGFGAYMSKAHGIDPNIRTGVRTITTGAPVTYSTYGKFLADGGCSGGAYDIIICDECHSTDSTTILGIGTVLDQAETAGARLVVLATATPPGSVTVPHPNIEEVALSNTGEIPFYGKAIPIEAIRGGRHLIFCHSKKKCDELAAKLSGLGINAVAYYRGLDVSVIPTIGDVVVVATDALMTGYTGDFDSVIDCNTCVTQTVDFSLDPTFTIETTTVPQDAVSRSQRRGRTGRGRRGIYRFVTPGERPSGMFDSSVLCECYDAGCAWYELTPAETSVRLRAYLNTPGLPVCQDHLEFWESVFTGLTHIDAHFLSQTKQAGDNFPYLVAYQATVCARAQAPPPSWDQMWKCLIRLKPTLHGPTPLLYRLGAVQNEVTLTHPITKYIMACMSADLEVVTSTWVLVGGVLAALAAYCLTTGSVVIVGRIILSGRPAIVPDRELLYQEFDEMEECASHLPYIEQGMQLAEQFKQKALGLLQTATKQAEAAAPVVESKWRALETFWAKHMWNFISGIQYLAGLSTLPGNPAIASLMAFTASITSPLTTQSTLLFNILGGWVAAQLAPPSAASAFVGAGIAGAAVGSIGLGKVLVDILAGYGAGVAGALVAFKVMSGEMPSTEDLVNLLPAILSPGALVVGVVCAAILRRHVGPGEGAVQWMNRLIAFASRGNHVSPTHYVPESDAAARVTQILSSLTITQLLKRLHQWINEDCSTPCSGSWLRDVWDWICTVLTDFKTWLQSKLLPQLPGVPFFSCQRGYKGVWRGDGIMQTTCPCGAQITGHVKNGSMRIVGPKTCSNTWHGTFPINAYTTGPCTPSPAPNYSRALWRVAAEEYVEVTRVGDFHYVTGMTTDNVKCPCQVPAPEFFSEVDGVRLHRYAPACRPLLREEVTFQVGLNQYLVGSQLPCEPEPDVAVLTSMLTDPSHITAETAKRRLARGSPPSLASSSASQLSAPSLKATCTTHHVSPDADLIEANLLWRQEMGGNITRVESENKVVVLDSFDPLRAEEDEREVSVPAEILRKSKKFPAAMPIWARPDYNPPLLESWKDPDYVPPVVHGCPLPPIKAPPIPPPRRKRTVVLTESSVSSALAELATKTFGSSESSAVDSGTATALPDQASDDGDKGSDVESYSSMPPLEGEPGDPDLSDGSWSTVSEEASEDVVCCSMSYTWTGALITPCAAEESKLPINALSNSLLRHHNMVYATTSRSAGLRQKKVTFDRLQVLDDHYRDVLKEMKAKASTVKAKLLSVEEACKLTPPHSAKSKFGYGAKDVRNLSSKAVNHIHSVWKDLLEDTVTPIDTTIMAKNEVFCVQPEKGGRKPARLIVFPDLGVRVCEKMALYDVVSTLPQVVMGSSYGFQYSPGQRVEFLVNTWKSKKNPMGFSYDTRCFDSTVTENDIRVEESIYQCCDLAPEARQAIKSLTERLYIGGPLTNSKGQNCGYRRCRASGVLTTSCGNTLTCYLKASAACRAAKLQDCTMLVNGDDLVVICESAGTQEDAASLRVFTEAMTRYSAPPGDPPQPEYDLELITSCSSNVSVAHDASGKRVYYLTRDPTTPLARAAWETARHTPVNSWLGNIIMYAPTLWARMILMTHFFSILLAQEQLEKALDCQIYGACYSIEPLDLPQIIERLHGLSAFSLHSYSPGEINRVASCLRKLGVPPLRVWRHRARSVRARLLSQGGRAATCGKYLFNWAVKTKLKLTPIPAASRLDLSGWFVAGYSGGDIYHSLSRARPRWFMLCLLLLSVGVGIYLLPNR
smiles,measurement,setting,value
"Cc1ccc(NC(=O)[C@H](CCCCN)NCc2ccc(NC(=O)Nc3ccncc3)cc2)cc1 [Compound 262, (S)-6-AMINO-2-[4-(3-PYRIDIN-4-YL-UREIDO)-BENZYLAMINO]-HEXANOIC ACID P-TOLYLAMIDE]",IC50,HCV RdRp (NS5B),< 10 µM
same,EC50,[1],< 0.5 µM
same,EC50,[2],2 to 0.5 μM
"NCCCC[C@H](NC(=O)Nc1ccc(-c2ccccc2)cc1)C(=O)Nc1ccc(CN(C(=O)c2ccco2)C2CCCCC2)cc1 [Compound 26, (S)-FURAN-2-CARBOXYLIC ACID {4-[6-AMINO-2-(3-BIPHENYL-4-YL-UREIDO)-HEXANOYLAMINO]-BENZYL}-CYCLOHEXYL-AMIDE]",IC50,HCV RdRp (NS5B),< 10 µM
same,EC50,[2]; [3],> 2 µM
same,Selectivity Index (CC50/EC50),[2],<20
"Cc1cc2cc(NC(=O)[C@H](CCNC(=O)CN)NC(=O)OCC3c4ccccc4-c4ccccc43)ccc2[nH]1 [Compound 237, (S)-[3-(2-AMINO-ACETYLAMINO)-1-(2-METHYL-1H-INDOL-5-YLCARBAMOYL)-PROPYL]-CARBAMIC ACID 9H-FLUOREN-9-YLMETHYL ESTER]",IC50,HCV RdRp (NS5B),< 10 µM
same,EC50,[2]; [3],> 2 µM
same,Selectivity Index (CC50/EC50),[2],<20
"NCCCCC[C@H](NC(=O)NCc1ccccc1)C(=O)Nc1ccc(C2CCCCC2)cc1 [Compound 120, (S)-7-AMINO-2-(3-BENZYL-UREIDO)-HEPTANOIC ACID (4-CYCLOHEXYL-PHENYL)-AMIDE]",IC50,HCV RdRp (NS5B),< 10 µM
same,EC50,[2]; [3],> 2 µM
same,Selectivity Index (CC50/EC50),[2],<20
"NCCCCC[C@H](NC(=O)Nc1ccc(OCc2ccccc2)cc1)C(=O)Nc1ccc(C2CCCCC2)cc1 [Compound 121, (S)-7-AMINO-2-[3-(4-BENZYLOXY-PHENYL)-UREIDO]-HEPTANOIC ACID (4-CYCLOHEXYL-PHENYL)-AMIDE]",IC50,HCV RdRp (NS5B),< 10 µM
same,EC50,[2]; [3],< 0.5 µM
same,Selectivity Index (CC50/EC50),[2],<20
"Cc1ccc(NC(=O)[C@H](CCCCN)NC(=O)Nc2ccc(OCc3ccccc3)cc2)cc1 [Compound 2, (S)-6-AMINO-2-[3-(4-BENZYLOXY-PHENYL)-UREIDO]-HEXANOIC ACID P-TOLYLAMIDE]",IC50,HCV RdRp (NS5B),10 to 50 µM
same,EC50,[1]; Hepatitis C virus,< 0.5 µM
same,Selectivity Index (CC50/EC50),[1],20 to 100
same,EC50,[2]; [3],< 0.5 µM
same,Selectivity Index (CC50/EC50),[2],>100
"O=C(CC1CNCCN1C(=O)Nc1ccc(OCc2ccccc2)cc1)Nc1ccc(C2CCCCC2)cc1 (centres unmarked) [Compound 163, 2-[(4-CYCLOHEXYL-PHENYLCARBAMOYL)-METHYL]-PIPERAZINE-1-CARBOXYLIC ACID (4-BENZYLOXY-PHENYL)-AMIDE]",IC50,HCV RdRp (NS5B),10 to 50 µM
same,EC50,[2]; [3],< 0.5 µM
same,Selectivity Index (CC50/EC50),[2],<20
"Cc1ccc(NC(=O)C[C@H](CCCCN)NC(=O)Nc2ccc(OCc3ccccc3)cc2)cc1 [Compound 246, (S)-7-AMINO-3-[3-(4-BENZYLOXY-PHENYL)-UREIDO]-HEPTANOIC ACID P-TOLYLAMIDE]",IC50,HCV RdRp (NS5B),10 to 50 µM
same,EC50,[2]; [3],> 2 µM
same,Selectivity Index (CC50/EC50),[2],<20
"CC1CCC(NC(=O)[C@H](CNC(=O)CN)NC(=O)Nc2ccc(OCc3ccccc3)cc2)CC1 (stereo partly drawn) [Compound 306, (S)-3-(2-AMINO-ACETYLAMINO)-2-[3-(4-BENZYLOXY-PHENYL)-UREIDO]-N-(4-METHYL-CYCLOHEXYL)-PROPIONAMIDE]",IC50,HCV RdRp (NS5B),10 to 50 µM
same,EC50,[2]; [3],> 2 µM
same,Selectivity Index (CC50/EC50),[2],<20
"Cc1ccc(NC(=O)[C@H](CCCCN)NC(=O)CNc2ccccc2Oc2ccccc2)cc1 [Compound 366, (S)-6-AMINO-2-[2-(2-PHENOXY-PHENYLAMINO)-ACETYLAMINO]-HEXANOIC ACID P-TOLYLAMIDE]",IC50,HCV RdRp (NS5B),< 10 µM
same,EC50,[2]; [3],> 2 µM
same,Selectivity Index (CC50/EC50),[2],<20
"Cc1cc2cc(NC(=O)[C@H](CCCCN)NC(=O)Nc3ccc4c(c3)Cc3ccccc3-4)ccc2[nH]1 [Compound 207, (S)-6-AMINO-2-[3-(9H-FLUOREN-2-YL)-UREIDO]-HEXANOIC ACID (2-METHYL-1H-INDOL-5-YL)-AMIDE]",IC50,HCV RdRp (NS5B),< 10 µM
same,EC50,[2]; [3],> 2 µM
same,Selectivity Index (CC50/EC50),[2],<20
"NCCCCN(CC(=O)Nc1ccc(C2CCCCC2)cc1)C(=O)Nc1ccc(C=Cc2ccccc2)cc1 [Compound 324, 2-[1-(4-AMINO-BUTYL)-3-(4-STYRYL-PHENYL)-UREIDO]-N-(4-CYCLOHEXYL-PHENYL)-ACETAMIDE]",IC50,HCV RdRp (NS5B),10 to 50 µM
same,EC50,[2]; [3],> 2 µM
same,Selectivity Index (CC50/EC50),[2],<20
"NCCCC[C@@H](NC(=O)Nc1ccc2c(c1)Cc1ccccc1-2)C(=O)Nc1ccc(C2CCCCC2)cc1 [Compound 137, (R)-6-AMINO-2-[3-(9H-FLUOREN-2-YL)-UREIDO]-HEXANOIC ACID (4-CYCLOHEXYL-PHENYL)-AMIDE]",IC50,HCV RdRp (NS5B),< 10 µM
same,EC50,[2]; [3],< 0.5 µM
same,Selectivity Index (CC50/EC50),[2],20 to 100
"Cc1cc2cc(NC(=O)[C@H](CCCNC(=O)CN)NC(=O)Nc3ccc4c(c3)Cc3ccccc3-4)ccc2[nH]1 [Compound 297, (S)-5-(2-AMINO-ACETYLAMINO)-2-[3-(9H-FLUOREN-2-YL)-UREIDO]-PENTANOIC ACID (2-METHYL-1H-INDOL-5-YL)-AMIDE]",IC50,HCV RdRp (NS5B),< 10 µM
same,EC50,[1]; Hepatitis C virus,< 0.5 µM
same,Selectivity Index (CC50/EC50),[1],>100
same,EC50,[2]; [3],< 0.5 µM
same,Selectivity Index (CC50/EC50),[2],>100
"NCCCC[C@@H](NC(=O)Nc1ccc(OCc2ccccc2)cc1)C(=O)Nc1ccc(C2CCCCC2)cc1 [Compound 166, (R)-6-AMINO-2-[3-(4-BENZYLOXY-PHENYL)-UREIDO]-HEXANOIC ACID (4-CYCLOHEXYL-PHENYL)-AMIDE]",IC50,HCV RdRp (NS5B),< 10 µM
same,EC50,[2]; [3],> 2 µM
same,Selectivity Index (CC50/EC50),[2],<20
"Cc1ccc(NC(=O)C(Cc2ccc(CN)cc2)NC(=O)Nc2ccc(OCc3ccccc3)cc2)cc1 [Compound 146, (S)-3-(4-AMINOMETHYL-PHENYL)-2-[3-(4-BENZYLOXY-PHENYL)-UREIDO]-N-P-TOLYL-PROPIONAMIDE]",IC50,HCV RdRp (NS5B),< 10 µM
same,EC50,[2]; [3],< 0.5 µM
same,Selectivity Index (CC50/EC50),[2],20 to 100
"NCCCC[C@H](NC(=O)Nc1ccc(OCc2ccccc2)cc1)C(=O)Nc1ccc(C2CCCCC2)cc1 [Compound 117, (S)-6-AMINO-2-[3-(4-BENZYLOXY-PHENYL)-UREIDO]-HEXANOIC ACID (4-CYCLOHEXYL-PHENYL)-AMIDE]",IC50,HCV RdRp (NS5B),< 10 µM
same,EC50,[2]; [3],> 2 µM
same,Selectivity Index (CC50/EC50),[2],<20
"Cc1ccc(NC(=O)C(CCCCN)NC(=O)Nc2ccc(-c3nc4ccc(C)cc4s3)cc2)cc1 [Compound 214, (S)-6-AMINO-2-{3-[4-(6-METHYL-BENZOTHIAZOL-2-YL)-PHENYL]-UREIDO}-HEXANOIC ACID P-TOLYLAMIDE]",IC50,HCV RdRp (NS5B),< 10 µM
same,EC50,[2]; [3],> 2 µM
same,Selectivity Index (CC50/EC50),[2],<20
"Cc1cc2cc(NC(=O)[C@H](CCCCN)NC(=O)Nc3ccc(OCc4ccccc4)cc3)ccc2[nH]1 [Compound 206, (S)-6-AMINO-2-[3-(4-BENZYLOXY-PHENYL)-UREIDO]-HEXANOIC ACID (2-METHYL-1H-INDOL-5-YL)-AMIDE]",IC50,HCV RdRp (NS5B),10 to 50 µM
same,EC50,[1]; Hepatitis C virus,> 2 µM
same,Selectivity Index (CC50/EC50),[1],<20
same,EC50,[2]; [3],> 2 µM
same,Selectivity Index (CC50/EC50),[2],<20
"Cc1ccc(NC(=O)C(CCCCN)NC(=O)Nc2ccc(-c3nc4ccccc4o3)cc2)cc1 [Compound 270, (S)-6-AMINO-2-[3-(4-BENZOOXAZOL-2-YL-PHENYL)-UREIDO]-HEXANOIC ACID P-TOLYLAMIDE]",IC50,HCV RdRp (NS5B),10 to 50 µM
same,EC50,[2]; [3],> 2 µM
same,Selectivity Index (CC50/EC50),[2],<20
"NCCCC[C@H](NC(=O)Nc1ccc(-c2ccccc2)cc1)C(=O)Nc1ccc(C2CCCCC2)cc1 [Compound 119, (S)-6-AMINO-2-(3-BIPHENYL-4-YL-UREIDO)-HEXANOIC ACID (4-CYCLOHEXYL-PHENYL)-AMIDE]",IC50,HCV RdRp (NS5B),< 10 µM
same,EC50,[2]; [3],> 2 µM
same,Selectivity Index (CC50/EC50),[2],<20
"Cc1ccc(NC(=O)[C@H](CCCCN)NC(=O)CNc2ccc(Oc3ccccc3)cc2)cc1 [Compound 368, (S)-6-AMINO-2-[2-(4-PHENOXY-PHENYLAMINO)-ACETYLAMINO]-HEXANOIC ACID P-TOLYLAMIDE]",IC50,HCV RdRp (NS5B),< 10 µM
same,EC50,[2]; [3],0.5 to 2 µM
same,Selectivity Index (CC50/EC50),[2],<20
"Cc1ccc(NC(=O)[C@@H](CCCCN)NC(=O)Nc2ccc(OCc3ccccc3)cc2)cc1 [Compound 172, (R)-6-AMINO-2-[3-(4-BENZYLOXY-PHENYL)-UREIDO]-HEXANOIC ACID P-TOLYLAMIDE]",IC50,HCV RdRp (NS5B),10 to 50 µM
same,EC50,[1]; Hepatitis C virus,< 0.5 µM
same,Selectivity Index (CC50/EC50),[1],20 to 100
same,EC50,[2]; [3],0.5 to 2 µM
same,Selectivity Index (CC50/EC50),[2],<20
"Cc1ccc(NC(=O)C(CCCCN)NC(=O)Nc2nnc(COc3ccc(C)cc3)s2)cc1 [Compound 272, (S)-6-AMINO-2-[3-(5-P-TOLYLOXYMETHYL-[1,3,4] THIADIAZOL-2-YL)-UREIDO]-HEXANOIC ACID P-TOLYLAMIDE]",IC50,HCV RdRp (NS5B),10 to 50 µM
same,EC50,[2]; [3],0.5 to 2 µM
same,Selectivity Index (CC50/EC50),[2],20 to 100
"Cc1ccc(NC(=O)C(Cc2ccc(CN)cc2)NC(=O)Nc2ccc(-c3ccccc3)cc2)cc1 [Compound 145, (S)-3-(4-AMINOMETHYL-PHENYL)-2-(3-BIPHENYL-4-YL-UREIDO)-N-P-TOLYL-PROPIONAMIDE]",IC50,HCV RdRp (NS5B),< 10 µM
same,EC50,[2]; [3],> 2 µM
same,Selectivity Index (CC50/EC50),[2],<20
